The assay relates to frog. In words: In vitro potency relative to alpha-melanotropin (alpha-MSH), in the frog (Rana pipiens) skin bioassay. It is filed as functional.

Where a SMILES comes first, the peptide text is derived from it. [ ]: non-standard residue; d: D form. Nle = CCCC[C@H](N)C(=O)O

`CCCC[C@H](NC(C)=O)C(=O)N[C@@H](CCC(=O)O)C(=O)N[C@@H](Cc1c[nH]cn1)C(=O)N[C@@H](Cc1ccccc1)C(=O)N[C@@H](CCCN=C(N)N)C(=O)N[C@@H](Cc1c[nH]c2ccccc12)C(=O)NCC(=O)N[C@@H](CCCCN)C(=O)N1CCC[C@H]1C(N)=O` (Ac-[Nle]EHFRWGKP-NH2) registered a Relative potency of 0.18.

The compound `CC(=O)N[C@@H](Cc1c[nH]cn1)C(=O)N[C@@H](Cc1ccccc1)C(N)=O` (Ac-His-Phe-NH2) came in with a Relative potency of 0.

`CSCC[C@H](NC(C)=O)C(=O)N[C@@H](CCC(=O)O)C(=O)N[C@@H](Cc1c[nH]cn1)C(=O)N[C@@H](Cc1ccccc1)C(=O)N[C@@H](CCCN=C(N)N)C(=O)N[C@@H](Cc1c[nH]c2ccccc12)C(=O)NCC(N)=O` showed a Relative potency of 0.0005.

For the compound `CC(=O)N[C@@H](CCCCN)C(=O)N1CCC[C@H]1C(=O)N[C@H](C(N)=O)C(C)C` (Ac-Lys-Pro-Val-NH2), the Relative potency came out at 0.

`CC(=O)N[C@@H](Cc1c[nH]cn1)C(=O)N[C@@H](Cc1ccccc1)C(=O)N[C@@H](CCCN=C(N)N)C(=O)N[C@@H](Cc1c[nH]c2ccccc12)C(N)=O` gave a Relative potency of 5e-06.

The compound `CCCC[C@H](NC(C)=O)C(=O)N[C@@H](CCC(=O)O)C(=O)N[C@@H](Cc1c[nH]cn1)C(=O)N[C@@H](Cc1ccccc1)C(=O)N[C@@H](CCCN=C(N)N)C(=O)N[C@@H](Cc1c[nH]c2ccccc12)C(=O)NCC(=O)N[C@@H](CCCCN)C(=O)N1CCC[C@H]1C(=O)N[C@H](C(N)=O)C(C)C` yielded a Relative potency of 0.4.

Compound Ac-HFRWG-NH2 showed a Relative potency of 8e-05.

Take `CCCC[C@H](NC(C)=O)C(=O)N[C@@H](CCC(=O)O)C(=O)N[C@@H](Cc1c[nH]cn1)C(=O)N[C@@H](Cc1ccccc1)C(=O)N[C@@H](CCCN=C(N)N)C(=O)N[C@@H](Cc1c[nH]c2ccccc12)C(=O)NCC(=O)N[C@@H](CCCCN)C(N)=O` (Ac-[Nle]EHFRWGK-NH2): the Relative potency came to 0.002.

`CC(=O)N[C@@H](Cc1ccccc1)C(=O)N[C@@H](CCCN=C(N)N)C(=O)N[C@@H](Cc1c[nH]c2ccccc12)C(=O)NCC(N)=O` (Ac-FRWG-NH2) came in with a Relative potency of 0.

Regarding Ac-MEHFRWGKP-NH2, the Relative potency came to 0.18.

In turn, `CC(=O)N[C@@H](CCCCN)C(N)=O` had a Relative potency of 0.

Turning to Ac-EHFRWG-NH2, the Relative potency turned out to be 0.00014.

With `N=C(N)NCCC[C@H](NC(=O)[C@@H](N)Cc1ccccc1)C(=O)O` (H-Phe-Arg-OH), the Relative potency is 0.

As for `CC(=O)N[C@@H](Cc1ccccc1)C(=O)N[C@@H](CCCN=C(N)N)C(N)=O` (Ac-Phe-Arg-NH2), the Relative potency amounted to 0.

In turn, `CCCC[C@H](NC(C)=O)C(=O)N[C@@H](CCC(=O)O)C(=O)N[C@@H](Cc1c[nH]cn1)C(=O)N[C@@H](Cc1ccccc1)C(=O)N[C@@H](CCCN=C(N)N)C(=O)N[C@@H](Cc1c[nH]c2ccccc12)C(=O)NCC(N)=O` displayed a Relative potency of 0.002.

Regarding `CC(=O)N[C@@H](Cc1c[nH]cn1)C(=O)N[C@@H](Cc1ccccc1)C(=O)N[C@@H](CCCN=C(N)N)C(N)=O` (Ac-His-Phe-Arg-NH2), the Relative potency worked out at 0.

Values taken from ChEMBL document CHEMBL1123651, “alpha-Melanotropin: the minimal active sequence in the frog skin bioassay” (J Med Chem, 1987).
